Tests used:
[1] = method [c]: LC-MS at pH 7.8, 0.001 molar ammonium hydrogen carbonate in water, linear gradient 10% to 95% acetonitrile
[2] = Measurement of logP values according EEC directive 79/831 Annex V.A8 by HPLC on reversed phase columns; assay type: physicochemical; settings: reversed phase HPLC columns; method [a]: pH 2.3 with 0.1% phosphoric acid and acetonitrile as eluent; read-out: log p
[3] = logP(HCOOH) reported with HPLC/MS; settings: logP(HCOOH), HPLC/MS

SMILES | log p [1] | chromatographic logP [2] | chromatographic logP [3] | chromatographic logP ([3]; HCOOH (formic acid)) | chromatographic logP ([3]; HPLC)
COCC#Cc1cccc(CON=C(c2ccccc2)c2nnnn2C)n1 [Example 24] | 3.04^[c] |  |  |  | 
Cn1nnnc1C(=NOCc1cccc(C=NOC2CCCCC2)n1)c1ccccc1 [Example 274, N-[(6-{[(cyclohexyloxy)imino]methyl}pyridin-2-yl)methoxy]-1-(1-methyl-1H-tetrazol-5-yl)-1-phenylmethanimine] |  | 4.89 | 4.89 |  | 
Cn1nnnc1C(=NOCc1cccc(CO)n1)c1ccccc1 [Example 275, {6-[({[(1-methyl-1H-tetrazol-5-yl)(phenyl)methylene]amino}oxy)methyl]pyridin-2-yl}methanol] |  | 1.76 |  | 1.76 | 
CCCC/C=C/c1nc(CON=C(c2ccccc2)c2nnnn2C)cs1 [Example 278, N-({2-[(1E)-hex-1-en-1-yl]-1,3-thiazol-4-yl}methoxy)-1-(1-methyl-1H-tetrazol-5-yl)-1-phenylmethanimine] |  | 4.56 |  |  | 4.56

From patent publication US8466176B2 (priority 2008, dated 2013)
